For data set [1] the following is noted: low permeability, high solubility; cited from earlier work.
In data set [2] the test system is canine-colonoid-derived monolayers. Put plainly: Bidirectional transport (Papp) across canine-colonoid-derived monolayers. The settings on record: for Papp A→B / Papp B→A: Dog colonoid, read-out: Papp × 10^−6; for Papp B→A: BL→AP pH 7.4/7.4, individual wells. Format: in vitro ADME, dog.
Protocol: (§1) After seven days of culture (Figure 3A), the 3D colonoids were harvested from the Matrigel® using the Corning™ cell recovery solution. Matrigel® plugs were dissociated by repeated pipetting after adding 500 μL of pre-chilled cell recovery solution into each well, and the plate was incubated for 30 min at 4 °C to dissolve the Matrigel®. The mixture was then transferred to a 15 mL tube and centrifuged at 100× g for 5 min at 4 °C. The organoid pellet was resuspended in 1 mL TrypLE Express and incubated at 37 °C for 10 min with shaking. To stop the TrypLE action, 6 mL of DMEM/F12 was added to the mixture before centrifugation at 100× g for 5 min at 4 °C. The supernatant was removed, and the pellet was resuspended with CMGF+ media. The harvested colonoid cell suspension was filtered through a sterile cell strainer (40 µm nylon mesh, Thermo Fisher Scientific) to obtain a single-cell suspension. The viability of dissociated cells was assessed by the trypan blue exclusion test [58, 59], and cells were counted manually using a hemocytometer (Hausser Scientific, Horsham, PA, USA). The Transwell™ inserts were pre-coated with Matrigel® (100 μg/mL; Corning®) and rat tail collagen I (30 μg/mL; Fisher Scientific) to promote adhesion, growth, and differentiation in CMGF+ media at 37 °C for 1 h. Dissociated colonoid cells (Passages #15–20) were seeded at a density of 100,000 cells/cm^2 in pre-coated inserts and allowed to grow and differentiate in the presence of CMGF+ media for 10 to 12 days before the experiments (Figure 3B). The CMGF+ culture medium was changed every other day. The structural integrity of the cell monolayer was monitored every other day for up to two weeks by phase-contrast microscopy.
(§2) All transport experiments were conducted at room temperature following the conditions outlined in earlier reports during sampling and incubation [66, 67, 68]. The culture media were aspirated from both AP (0.2 mL) and BL (0.7 mL) chambers. For both the canine colonoid and the Caco-2 monolayer, the BL chambers with HBSS buffer at pH 7.4 (0.7 mL) and the AP chambers with appropriate HBSS buffer at pH 6.8 or 7.4 (0.2 mL) (canine) or pH 6.8 (0.2 mL) (Caco-2 cells) were rinsed and equilibrated at room temperature for 30 min. Two to three wells per drug/pH/direction were used for data generation.
(§3) After Caco-2 and canine colonoid monolayers were equilibrated in the transport buffer for 30 min, the buffer was aspirated from the AP (0.2 mL) and BL (0.7 mL) chambers. The media of the AP chamber were replaced with 0.2 mL of the drug solution prepared in an appropriate transport buffer. HBSS buffer with pH 7.4 was added to the BL chambers. At pre-defined time points (15, 30, 45, 60, 90, and 120 min), samples of 100 µL buffer were collected from the receiver chamber (BL) and replaced with the same volume (i.e., 100 µL) of transport buffer at pH 7.4. For the AP side, drug concentrations of the donor solution were measured prior to introduction into the well and at the end of the study (120 min). In so doing, no buffer replacement was needed. All study samples were labeled and stored at −80 °C until further analysis.
(§4) The same procedures described above for studying AP→BL permeability were followed when studying BL→AP, with the only difference being that the donor chamber was now the BL side and the receiver chamber was now the AP side. At pre-determined time intervals (15, 30, 45, 60, 90, and 120 min), 100 µL of buffer was removed from the receiver chamber (AP) and replaced with the same volume (i.e., 100 µL) of transport buffer with the specified pH. The collected samples were stored at −80 °C until further analysis by mass spectrometry (details below).
Data set [3] in a line: Bidirectional transport (Papp) across Caco-2 cell monolayers. The data set is classed as in vitro ADME, human. To be noted: human; for Papp A→B at 120 min, 0.04 mg/mL: Caco-2, pH 6.8, 0.04 mg/mL (58.4 μM); for Papp A→B at 120 min, 0.4 mg/mL: Caco-2, pH 6.8, 0.4 mg/mL (584.1 μM); for Papp B→A at 120 min, 0.04 mg/mL: Caco-2, pH 7.4, 0.04 mg/mL (58.4 μM); for Papp B→A at 120 min, 0.4 mg/mL: Caco-2, pH 7.4, 0.4 mg/mL (584.1 μM); for Papp A→B at 120 min, 1 mg/mL: Caco-2, pH 6.8, 1 mg/mL (3380 μM); for Papp B→A at 120 min, 1 mg/mL: Caco-2, pH 7.4, 1 mg/mL (3380 μM).
Protocol: The harvested Caco-2 cell suspension was then filtered through a sterile cell strainer (40 µm nylon mesh, Thermo Fisher Scientific) to obtain a single-cell suspension. Caco-2 cell viability and concentration were determined by a trypan blue exclusion test [57, 58]. Single Caco-2 cells (passages 50–55) were seeded at a density of 75,000 cells/cm^2 in the apical chamber of the insert and cultured in CCCM media. The culture medium in both apical and basolateral chambers was changed every other day. In the transport studies, the monolayers were utilized 18 to 20 days after plating.
as §2, §3, §4
The uncorrected Papp estimates for the three drugs of interest (Papp-uncorrected, cm/s) were calculated as follows (Equation (2)) [7]: (2) Papp-uncorrected =VR/(A×C0)×dC/dt where VR is the volume in the receiver chamber (mL), A is the surface area of the filter ( 0.33 cm^2 ), C0 is the initial drug concentration (µM) in the donor chamber, and dC/dt is the maximum slope of the line defining the cumulative drug concentration (mg/mL) vs. time (min) in the receiver compartment. […] The estimated concentrations in the receiver compartment were corrected for drug removed during prior samples.
These Papp value estimates were further corrected for the percent recovery (Rec (%)) in each well [71, 72] as follows (Equation (3)): (3) Rec (%) =mg donor hr 2+total mg receiver hr 2/mg drug introduced into the donor compartment at hr 0
The corrected Papp estimates reported herein were, therefore, calculated as follows (Equation (4)):(4) Papp= Papp−uncorrected /Rec (%)

The subject of the next data set is Caco-2 cell monolayers. The description is as above. The data set is classed as in vitro ADME, human.
Details of data set [4]: method as in earlier work. To be noted: ref 65 (PubChem), cited from earlier work.
The next data set deals with P-gp. To be noted: cited from earlier work.
Data set [5] is described as follows: Bidirectional transport (Papp) across canine-colonoid-derived monolayers. To be noted: dog, Dog colonoid. The data set is classed as in vitro ADME, dog.
Protocol: as §1, §2, §3, §4
[6] abbreviates: Human Caco-2, AP→BL pH 6.8/7.4, N = 2, read-out: Papp × 10^−6 Avg.
[7] abbreviates: Human Caco-2, AP→BL pH 6.8/7.4, individual wells, read-out: Papp × 10^−6.
The mark [8] stands for this setting: Human Caco-2, BL→AP pH 7.4/7.4, N = 2, read-out: Papp × 10^−6 Avg.
The mark [9] stands for this setting: Human Caco-2, BL→AP pH 7.4/7.4, individual wells, read-out: Papp × 10^−6.

What is called Log P is a log measure of how a compound divides between an organic and an aqueous phase.

Molecules are shown by their SMILES. Like-named read-outs stand apart in the source and are kept apart here.

As to `CC(C)NCC(O)COc1ccc(CC(N)=O)cc1` (centres unmarked) [Atenolol], the “BCS Class” value in data set [1] was “Class III”. The “drug in the receiver compartment” value in data set [2] (2.0 mg/mL, canine colonoids, irrespective of pH or direction (AP→BL or BL→AP)) is reported as “not detectable”.

For the compound `COCCc1ccc(OCC(O)CNC(C)C)cc1` (centres unmarked) [Metoprolol], the Papp A→B at 120 min, 0.04 mg/mL in data set [3] (setting [6]) was 15.3 ×10⁻⁶ cm/s; in data set [3] (setting [7]), 17.5 ×10⁻⁶ cm/s; in data set [5] (pH 6.8, 0.04 mg/mL (58.4 μM), AP→BL pH 6.8/7.4, N = 2, read-out: Papp × 10^−6 Avg) it was 17.7 ×10⁻⁶ cm/s; in data set [5] (pH 6.8, 0.04 mg/mL (58.4 μM), AP→BL pH 6.8/7.4, individual wells, read-out: Papp × 10^−6), 16.8 ×10⁻⁶ cm/s; in data set [5] (pH 7.4, 0.04 mg/mL (58.4 μM), AP→BL pH 7.4/7.4, N = 2, read-out: Papp × 10^−6 Avg), 13.5 ×10⁻⁶ cm/s; in data set [5] (pH 7.4, 0.04 mg/mL (58.4 μM), AP→BL pH 7.4/7.4, individual wells, read-out: Papp × 10^−6), 13.4 ×10⁻⁶ cm/s. Further, the Papp A→B at 120 min, 0.4 mg/mL came out at 17.9 ×10⁻⁶ cm/s in data set [3] (setting [6]); 19.3 ×10⁻⁶ cm/s in data set [3] (setting [7]); 8.33 ×10⁻⁶ cm/s in data set [5] (pH 6.8, 0.4 mg/mL (584.1 μM) ± FITC-dextran 200 µg/mL, AP→BL pH 6.8/7.4, individual wells, read-out: Papp × 10^−6); 8.72 ×10⁻⁶ cm/s in data set [5] (pH 6.8, 0.4 mg/mL (584.1 μM) ± FITC-dextran 200 µg/mL, AP→BL pH 6.8/7.4, read-out: Papp × 10^−6 Avg); 9.9 ×10⁻⁶ cm/s in data set [5] (pH 7.4, 0.4 mg/mL (584.1 μM) ± FITC-dextran 200 µg/mL, AP→BL pH 7.4/7.4, individual wells, read-out: Papp × 10^−6); 10.5 ×10⁻⁶ cm/s in data set [5] (pH 7.4, 0.4 mg/mL (584.1 μM) ± FITC-dextran 200 µg/mL, AP→BL pH 7.4/7.4, read-out: Papp × 10^−6 Avg). Also, the Papp B→A at 120 min, 0.04 mg/mL in data set [3] (setting [8]) was 17.7 ×10⁻⁶ cm/s; in data set [3] (setting [9]), 16.3 ×10⁻⁶ cm/s; in data set [5] (pH 7.4, 0.04 mg/mL (58.4 μM), BL→AP pH 7.4/7.4, N = 2, read-out: Papp × 10^−6 Avg), 11.9 ×10⁻⁶ cm/s; in data set [5] (pH 7.4, 0.04 mg/mL (58.4 μM), BL→AP pH 7.4/7.4, individual wells, read-out: Papp × 10^−6), 11.2 ×10⁻⁶ cm/s. Besides, the Papp B→A at 120 min, 0.4 mg/mL in data set [3] (setting [8]) was determined as 13.1 ×10⁻⁶ cm/s; in data set [3] (setting [9]), 13.8 ×10⁻⁶ cm/s; in data set [5] (pH 7.4, 0.4 mg/mL (584.1 μM) ± FITC-dextran 200 µg/mL, BL→AP pH 7.4/7.4, individual wells, read-out: Papp × 10^−6) it was 9.88 ×10⁻⁶ cm/s; in data set [5] (pH 7.4, 0.4 mg/mL (584.1 μM) ± FITC-dextran 200 µg/mL, BL→AP pH 7.4/7.4, read-out: Papp × 10^−6 Avg) it was 9.91 ×10⁻⁶ cm/s. For the same compound, the “Papp × 10^−6” value with Caco-2 cell monolayers (0.04 mg/mL (58.4 μM), Human Caco-2, AP→BL pH 6.8/7.4, individual wells) was 13.13 × 10^−6 cm/s; in the data set on Caco-2 cell monolayers (0.04 mg/mL (58.4 μM), Human Caco-2, BL→AP pH 7.4/7.4, individual wells) it was 19.03 × 10^−6 cm/s; with Caco-2 cell monolayers (0.4 mg/mL (584.1 μM), Human Caco-2, AP→BL pH 6.8/7.4, individual wells), 16.45 × 10^−6 cm/s; in the data set with Caco-2 cell monolayers (0.4 mg/mL (584.1 μM), Human Caco-2, BL→AP pH 7.4/7.4, individual wells), 12.37 × 10^−6 cm/s. Further, the “Aqueous Solubility (25 °C)” value in data set [4] (25 °C) was more than 1000 mg/mL. For the same compound, the lipophilicity (Log P) in data set [4] was 2.15. For the same compound, in the data set on P-gp, the P-gp substrate status entry is listed as “not a substrate for P-gp transport”. Further, the Papp A→B was 18.5 ×10⁻⁶ cm/s in data set [2] (0.04 mg/mL (58.4 μM), AP→BL pH 6.8/7.4, individual wells); 13.5 ×10⁻⁶ cm/s in data set [2] (0.04 mg/mL (58.4 μM), AP→BL pH 7.4/7.4, individual wells); 9.1 ×10⁻⁶ cm/s in data set [2] (0.4 mg/mL (584.1 μM) ± FITC-dextran 200 µg/mL, AP→BL pH 6.8/7.4, individual wells); 11.2 ×10⁻⁶ cm/s in data set [2] (0.4 mg/mL (584.1 μM) ± FITC-dextran 200 µg/mL, AP→BL pH 7.4/7.4, individual wells). In addition, the values for the Papp B→A in data set [2] (0.04 mg/mL (58.4 μM)) and in data set [2] (0.4 mg/mL (584.1 μM) ± FITC-dextran 200 µg/mL) were 12.7 ×10⁻⁶ cm/s and 9.94 ×10⁻⁶ cm/s, respectively.

`CC(C)NCC(O)COc1cccc2ccccc12` (centres unmarked) [Propranolol]: the Papp A→B at 120 min, 1 mg/mL was 12.4 ×10⁻⁶ cm/s in data set [3] (setting [6]); 12.1 ×10⁻⁶ cm/s in data set [3] (setting [7]); 11.6 ×10⁻⁶ cm/s in data set [5] (pH 6.8, 1 mg/mL (3380 μM), AP→BL pH 6.8/7.4, N = 2, read-out: Papp × 10^−6 Avg); 12.2 ×10⁻⁶ cm/s in data set [5] (pH 6.8, 1 mg/mL (3380 μM), AP→BL pH 6.8/7.4, individual wells, read-out: Papp × 10^−6); 12 ×10⁻⁶ cm/s in data set [5] (pH 7.4, 1 mg/mL (3380 μM), AP→BL pH 7.4/7.4, N = 2, read-out: Papp × 10^−6 Avg); 12 ×10⁻⁶ cm/s in data set [5] (pH 7.4, 1 mg/mL (3380 μM), AP→BL pH 7.4/7.4, individual wells, read-out: Papp × 10^−6). The Papp B→A at 120 min, 1 mg/mL in data set [3] (setting [8]) was 11.9 ×10⁻⁶ cm/s; in data set [3] (setting [9]) it was 11.4 ×10⁻⁶ cm/s; in data set [5] (pH 7.4, 1 mg/mL (3380 μM), BL→AP pH 7.4/7.4, N = 2, read-out: Papp × 10^−6 Avg), 11.5 ×10⁻⁶ cm/s; in data set [5] (pH 7.4, 1 mg/mL (3380 μM), BL→AP pH 7.4/7.4, individual wells, read-out: Papp × 10^−6) it was 10.9 ×10⁻⁶ cm/s. For the same compound, the “Papp × 10^−6” value in the data set on Caco-2 cell monolayers (1 mg/mL (3380 μM), Human Caco-2, AP→BL pH 6.8/7.4, individual wells) is recorded as 12.75 × 10^−6 cm/s; with Caco-2 cell monolayers (1 mg/mL (3380 μM), Human Caco-2, BL→AP pH 7.4/7.4, individual wells), 12.43 × 10^−6 cm/s. For the same compound, the Papp A→B in data set [2] (1 mg/mL (3380 μM), AP→BL pH 6.8/7.4, individual wells) stood at 11.1 ×10⁻⁶ cm/s; in data set [2] (1 mg/mL (3380 μM), AP→BL pH 7.4/7.4, individual wells) it was 12 ×10⁻⁶ cm/s. Also, the Papp B→A in data set [2] (1 mg/mL (3380 μM)) worked out at 12 ×10⁻⁶ cm/s.

The values above are taken from PMC10177590, “Canine Intestinal Organoids as a Novel In Vitro Model of Intestinal Drug Permeability: A Proof-of-Concept Study” (Cells, 2023).
